Data from US20250206751A1, “HETEROCYCLIC COMPOUND FOR INDUCING DEGRADATION OF G12D MUTANT KRAS PROTEIN” (Astellas Pharma Inc., priority 2022, published 2025).

How the values were obtained:
[1] = tested on: phosphorylation of threonine 202 (Thr202) and tyrosine 204 (Tyr204) of ERK; assay: ERK phosphorylation inhibitory effect by Cell ELISA in AsPC-1 (Test Example 2); assay type: cell-based, human; conditions: cultured overnight with compound, 1 μM trametinib taken as 0%
Summary of the method: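 AsPC-1 cells (G12D KRAS) treated overnight with compound (10 points, 10 μM to 0.3 nM final), then glyoxal-fixed and immunostained for phospho-ERK with a fluorescent secondary read at 800 nm. IC50 by Sigmoid-Emax regression, with DMSO as 100% and 1 μM trametinib as 0%.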

[2] = target: T1, KRAS G12D protein (Homo sapiens, UniProt P01116, G12D); assay: KRAS degradation activity by Cell ELISA in AsPC-1 (Test Example 1); assay type: cell-based; conditions: AsPC-1 cells, cultured overnight with compound, corrected with β-actin, read-out: DC50 (50% degradation concentration of the amounts of KRAS)
T1 construct: host or cells: AsPC-1
T1 sequence (P01116 1-188 isoform P01116-2 G12D): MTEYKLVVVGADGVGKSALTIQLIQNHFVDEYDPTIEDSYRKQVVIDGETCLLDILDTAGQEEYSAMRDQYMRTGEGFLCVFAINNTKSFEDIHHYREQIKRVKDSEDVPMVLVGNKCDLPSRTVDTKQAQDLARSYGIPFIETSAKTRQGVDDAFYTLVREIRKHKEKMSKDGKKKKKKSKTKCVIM
Summary of the method: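 AsPC-1 cells (KRAS G12D), 2.0×10^4/well, treated overnight with compound (10 points, 10 μM–0.3 nM final) in RPMI 1640/10% FBS. Fixed cells immunostained for G12D-specific Ras and β-actin, with near-IR fluorescence read. Ras/actin ratio scaled DMSO = 0% and actin-only = 100%, and DC50 fitted by Sigmoid-Emax regression.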

[3] = tested on: human G12D mutant KRAS-positive pancreatic cancer line AsPC-1; assay: Non-anchorage-dependent cell growth inhibition, spheroid 3D cell culture (Test Example 3); assay type: cell-based; conditions: AsPC-1 spheroid 3D culture, 6 days, CellTiter Glo 2.0
Summary of the method: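 AsPC-1 spheroids, 5×10^2 cells per well on low-adhesion round-bottom plates in RPMI 1640/10% FBS, dosed next day at 10 or 6 points spanning 10 μM to 0.3 nM final for 6 days at 37° C., 5% CO2. Viability by CellTiter Glo 2.0 luminescence; IC50 by Sigmoid-Emax regression, DMSO 100% and cell-free medium 0%.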

[4] = Homo sapiens, ASPC1, AsPC-1 cells

`CO[C@@H](C)COc1nc(O[C@@H]2CCNC2)c2cc(C3CC3)c(-c3c(C)c(F)cc4[nH]ncc34)c(OCc3ccc(-c4cn([C@H](C(=O)N5C[C@H](O)C[C@H]5C(=O)N[C@@H](CO)c5ccc(-c6scnc6C)cc5)C(C)C)nn4)cc3)c2n1` (atropisomer, axis not shown) [Example 52] showed an IC50 [1, 4] of 4 nM, a DC50 [2] of 11 nM and an IC50 ([3]; Homo sapiens, ASPC1, 144 h) of 4 nM.
`CO[C@@H](C)COc1nc(N2CCNCC2)c2cc(C3CC3)c(-c3c(C)c(F)cc4[nH]ncc34)c(OCc3ccc(-c4cn([C@H](C(=O)N5C[C@H](O)C[C@H]5C(=O)N[C@@H](CO)c5ccc(-c6scnc6C)cc5)C(C)C)nn4)cc3)c2n1` (atropisomer, axis not shown) [Example 54] showed an IC50 [1, 4] of 5 nM, a DC50 [2] of 34 nM and an IC50 ([3]; Homo sapiens, ASPC1, 144 h) of 7 nM.
Work on `Cc1ncsc1-c1ccc([C@H](CO)NC(=O)[C@@H]2C[C@@H](O)CN2C(=O)[C@H](C(C)C)n2cc(-c3ccc(COc4c(-c5c(C)c(F)cc6[nH]ncc56)c(C5CC5)cc5c(OC6CNC6)nc(OC6CCOCC6)nc45)cc3)nn2)cc1` (atropisomer, axis not shown; (M)) [Example 2, (4R)-1-[(2S)-2-(4-{4-[({(7M)-4-[(azetidin-3-yl)oxy]-6-cyclopropyl-7-(6-fluoro-5-methyl-1H-indazol-4-yl)-2-[(oxan-4-yl)oxy]quinazolin-8-yl}oxy)methyl]phenyl}-1H-1,2,3-triazol-1-yl)-3-methylbutanoyl]-4-hydroxy-N-{(1R)-2-hydroxy-1-[4-(4-methyl-1,3-thiazol-5-yl)phenyl]ethyl}-L-prolinamide] yielded an IC50 [1, 4] of 9 nM, a DC50 [2] of 20 nM and an IC50 ([3]; Homo sapiens, ASPC1, 144 h) of 92 nM.
For `Cc1ncsc1-c1ccc([C@H](CO)NC(=O)[C@@H]2C[C@@H](O)CN2C(=O)[C@H](C(C)C)n2cc(-c3ccc(COc4c(-c5c(C)c(F)cc6[nH]ncc56)c(C5CC5)cc5c(N(C)[C@H]6CCNC6)nc(OC[C@@H]6CCCO6)nc45)cc3)nn2)cc1` (atropisomer, axis not shown; (M)) [Example 10, (4R)-1-[(2S)-2-{4-[4-({[(7M) 6-cyclopropyl-7-(6-fluoro-5-methyl-1H-indazol-4-yl)-4-{methyl[(3S)-pyrrolidin-3-yl]amino}-2-{[(2S)-oxolan-2-yl]methoxy}quinazolin-8-yl}oxy}methyl)phenyl]-1H-1,2,3-triazol-1-yl}-3-methylbutanoyl]-4-hydroxy-N-{(1R)-2-hydroxy-1-[4-(4-methyl-1,3-thiazol-5-yl)phenyl]ethyl}-L-prolinamide], the IC50 [1, 4] was 8 nM, the DC50 [2] was 18 nM and the IC50 ([3]; Homo sapiens, ASPC1, 144 h) was 6 nM.
For `CO[C@@H](C)COc1nc(N(C)[C@H]2CCNC2)c2cc(C3CC3)c(-c3c(C)c(F)cc4[nH]ncc34)c(OCc3ccc(-c4cn([C@H](C(=O)N5C[C@H](O)C[C@H]5C(=O)N[C@@H](CO)c5ccc(-c6scnc6C)cc5)C(C)C)nn4)c(F)c3)c2n1` (atropisomer, axis not shown; (M)) [Example 44], the IC50 [1, 4] was 31 nM, the DC50 [2] was 43 nM and the IC50 ([3]; Homo sapiens, ASPC1, 144 h) was 17 nM.
For `Cc1ncsc1-c1ccc([C@H](CO)NC(=O)[C@@H]2C[C@@H](O)CN2C(=O)[C@H](C(C)C)n2cc(-c3ccc(COc4c(-c5c(C)c(F)cc6[nH]ncc56)c(C5CC5)cc5c(N[C@H]6CCNC6)cc(OC6CCOCC6)nc45)cc3)nn2)cc1` [Example 4], the IC50 [1, 4] was 8 nM, the DC50 [2] was 35 nM and the IC50 ([3]; Homo sapiens, ASPC1, 144 h) was 7 nM.
`CO[C@@H](C)COc1cc(O[C@H]2CCNC2)c2cc(C3CC3)c(-c3c(C)c(F)cc4[nH]ncc34)c(OCc3ccc(-c4cn([C@H](C(=O)N5C[C@H](O)C[C@H]5C(=O)N[C@@H](CO)c5ccc(-c6scnc6C)cc5)C(C)C)nn4)cc3)c2n1` [Example 22] gave an IC50 [1, 4] of 5 nM, a DC50 [2] of 59 nM and an IC50 ([3]; Homo sapiens, ASPC1, 144 h) of 5 nM.
Compound `Cc1ncsc1-c1ccc([C@H](CO)NC(=O)[C@@H]2C[C@@H](O)CN2C(=O)[C@H](C(C)C)n2cc(-c3ccc(COc4c(-c5c(C)c(F)cc6[nH]ncc56)c(C5CC5)cc5c(N(C)[C@H]6CCNC6)nc(OC[C@@H](C)C(F)F)nc45)cc3)nn2)cc1` [Example 42] has an IC50 [1, 4] of 6 nM, a DC50 [2] of 91 nM and an IC50 ([3]; Homo sapiens, ASPC1, 144 h) of 4 nM.
Compound `CO[C@@H](C)COc1cc(N2C[C@@H]3C[C@H]2CN3)c2cc(C3CC3)c(-c3c(C)c(F)cc4[nH]ncc34)c(OCc3ccc(-c4cn([C@H](C(=O)N5C[C@H](O)C[C@H]5C(=O)N[C@@H](CO)c5ccc(-c6scnc6C)cc5)C(C)C)nn4)cc3)c2n1` [Example 55] has an IC50 [1, 4] of 4 nM, a DC50 [2] of 10 nM and an IC50 ([3]; Homo sapiens, ASPC1, 144 h) of 15 nM.
For `CO[C@@H](C)COc1cc(N(C)[C@H]2CCNC2)c2cc(C3CC3)c(-c3c(C)c(F)cc4[nH]ncc34)c(OCc3ccc(-c4cn([C@H](C(=O)N5C[C@H](O)C[C@H]5C(=O)N[C@@H](CO)c5ccc(-c6scnc6C)cc5)C(C)C)nn4)cc3)c2n1` [Example 56], the IC50 ([1]; AsPC-1 cells) was 17 nM, the DC50 [2] was 28 nM and the IC50 [3] was 73 nM.
